Measured values as given in the supplement of paper PMC10307832.

Experiments:
Assay in all cases: relative viability (nuclei count vs DMSO), 5 days (fraction); higher = more cells survive
Palbociclib + Phenformin = compound: CC(=O)c1c(C)c2cnc(Nc3ccc(N4CCNCC4)cn3)nc2n(C2CCCC2)c1=O [Palbociclib] + N=C(N)NC(=N)NCCc1ccccc1 [Phenformin] (partner 250 µM)
How it was run: (§1)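 Relative viability equals treated-well nuclei counts divided by vehicle-well nuclei counts. Counts came from 4× images of lung cancer cell lines grown in 1536-well plates for 5 days after pin-tool dosing on the day after seeding. Dosing used one drug alone or a fixed anchor-drug dose plus five library-drug doses (not always all listed) in √10 steps, and values are medians of duplicate plates.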

Palbociclib + OSI-027 = compound: CC(=O)c1c(C)c2cnc(Nc3ccc(N4CCNCC4)cn3)nc2n(C2CCCC2)c1=O [Palbociclib] + COc1cccc2cc(-c3nc([C@H]4CC[C@H](C(=O)O)CC4)n4ncnc(N)c34)[nH]c12 [OSI-027] (partner 0.5 µM)
How it was run: as §1

Palbociclib + Foretinib = compound: CC(=O)c1c(C)c2cnc(Nc3ccc(N4CCNCC4)cn3)nc2n(C2CCCC2)c1=O [Palbociclib] + COc1cc2c(Oc3ccc(NC(=O)C4(C(=O)Nc5ccc(F)cc5)CC4)cc3F)ccnc2cc1OCCCN1CCOCC1 [Foretinib] (partner 0.25 µM)
How it was run: as §1

Palbociclib + Vorinostat = compound: CC(=O)c1c(C)c2cnc(Nc3ccc(N4CCNCC4)cn3)nc2n(C2CCCC2)c1=O [Palbociclib] + O=C(CCCCCCC(=O)Nc1ccccc1)NO [Vorinostat] (partner 1 µM)
How it was run: as §1

| Cell Line | relative viability (Palbociclib + Phenformin; first compound 0.01 µM) | relative viability (Palbociclib + Phenformin; first compound 0.03162 µM) | relative viability (Palbociclib + Phenformin; first compound 0.1 µM) | relative viability (Palbociclib + Phenformin; first compound 0.3162 µM) | relative viability (Palbociclib + Phenformin; first compound 1 µM) | relative viability (Palbociclib + OSI-027; first compound 0.01 µM) | relative viability (Palbociclib + OSI-027; first compound 0.03162 µM) | relative viability (Palbociclib + OSI-027; first compound 0.1 µM) | relative viability (Palbociclib + OSI-027; first compound 0.3162 µM) | relative viability (Palbociclib + OSI-027; first compound 1 µM) | relative viability (Palbociclib + Foretinib; first compound 0.01 µM) | relative viability (Palbociclib + Foretinib; first compound 0.03162 µM) | relative viability (Palbociclib + Foretinib; first compound 0.1 µM) | relative viability (Palbociclib + Foretinib; first compound 0.3162 µM) | relative viability (Palbociclib + Foretinib; first compound 1 µM) | relative viability (Palbociclib + Vorinostat; first compound 0.01 µM) | relative viability (Palbociclib + Vorinostat; first compound 0.03162 µM) | relative viability (Palbociclib + Vorinostat; first compound 0.1 µM) | relative viability (Palbociclib + Vorinostat; first compound 0.3162 µM) | relative viability (Palbociclib + Vorinostat; first compound 1 µM) |
| --- | --- | --- | --- | --- | --- | --- | --- | --- | --- | --- | --- | --- | --- | --- | --- | --- | --- | --- | --- | --- |
| RERF-LC-KJ | 0.419 | 0.414 | 0.418 | 0.459 | 0.485 | 0.541 | 0.583 | 0.508 | 0.598 | 0.64 | 0.868 | 0.761 | 0.88 | 0.861 | 0.898 | 0.724 | 0.613 | 0.66 | 0.747 | 0.682 |
| SK-LU-1 | 0.546 | 0.418 | 0.309 | 0.314 | 0.254 | 0.375 | 0.316 | 0.231 | 0.241 | 0.202 | 0.825 | 0.74 | 0.571 | 0.552 | 0.361 | 0.805 | 0.748 | 0.617 | 0.529 | 0.436 |
| SK-MES-1 | 0.661 | 0.573 | 0.455 | 0.376 | 0.18 | 0.528 | 0.364 | 0.345 | 0.314 | 0.186 | 1.09 | 0.834 | 0.781 | 0.687 | 0.502 | 1.08 | 0.902 | 0.735 | 0.763 | 0.395 |
| SW 900 | 0.632 |  | 0.435 | 0.448 | 0.298 | 0.582 |  | 0.399 | 0.322 | 0.358 | 0.902 |  | 0.844 | 0.649 | 0.625 | 0.524 |  | 0.385 | 0.415 | 0.389 |
| SW 1573 | 0.364 | 0.324 | 0.234 | 0.216 | 0.219 | 0.662 | 0.468 | 0.389 | 0.357 | 0.235 | 0.867 | 1 | 0.862 | 0.742 | 0.785 | 0.752 | 0.251 | 0.51 | 0.673 | 0.546 |
| UMC-11 | 0.303 | 0.278 | 0.292 | 0.292 | 0.24 | 0.462 | 0.417 | 0.302 | 0.308 | 0.286 | 1.01 | 0.86 | 0.698 | 0.459 | 0.275 | 0.308 | 0.42 | 0.369 | 0.312 | 0.242 |
